Results published in patent publication US20230364194A1, “GLP-1R/GCGR Dual Target Agonist Polypeptide Derivative for Treatment of Hepatic Fibrosis Associated with Viral Hepatitis” (Shenzhen Turier Biotech. Co., Ltd., priority 2020, published 2023).
Starred links: 1 amine or outer side, 2 acyl side, 3 side chain; linkers in the order of their positions; H or OH if unused. Non-standard residues stand in square brackets, D forms with d. Groups on a side chain read outwards from the residue. Primed or numbered codes have the meaning given here. No end group written: not given here. *: point of attachment. C18 diacid = O=C(O)CCCCCCCCCCCCCCCCC(=O)*; C16 diacid = O=C(O)CCCCCCCCCCCCCCC(=O)*; γGlu = O=C(O)[C@H](CCC(=O)[*:2])N[*:1]; Stearoyl = CCCCCCCCCCCCCCCCCC(=O)*; Palmitoyl = CCCCCCCCCCCCCCCC(=O)*; PEG2′ = not defined here; Aib = CC(C)(N)C(=O)O

system: Hepatic stellate cell strain LX-2; assay: In vitro effect on expression of LX-2 cell activation marker α-SMA (Western Blot, β-actin reference); format: cell-based; settings: LX-2 cells, 10.0 uM, 48 hours, negative control = 100%
From the text: Hepatic stellate cell strain LX-2 (from China Center for Type Culture Collection, Shanghai) was selected to study and observe the effects of polypeptide compounds 1-25 on the expression level of LX-2 cell activation marker α-smooth muscle actin (α-SMA). The control group was given the same volume of Dulbecco’s modified Eagle medium (DMEM) (from Gibco, United States), and β-actin (from TransGen Biotech) as the endogenous reference, wherein, α-SMA is a symbolic feature that distinguishes […] from myofibroblasts.
Hepatic stellate cell LX-2 was laid on 35 mm cell culture plate, cultured with DMEM (high glucose)+10% FBS+1% double-antibody culture medium (Thermo Fisher), placed overnight when the cells grew to 70% convergence at 37° C. under the condition of 5% CO2 without serum, and treated with the above GLP-1R/GCGR dual target agonist polypeptide derivatives (namely, polypeptide compounds 1-25) (dissolved in PBS) for 48 hours from the next morning to extract cell protein, and then Western Blot was performed with β-actin as endogenous reference to analyze the expression levels of α-SMA and β-actin by gray-scale analysis using Image J 1.50i. PBS with the same volume as that in experimental group was added in negative control.
The above polypeptide compounds 1-25 with a concentration of 10.0 µM were added, showing that they could reduce the expression of α-SMA at the concentration of 10.0 µM; and the negative control had no effect on the expression of α-SMA (referring to Table 2).
The integrated gray scale of α-SMA/β-actin in the negative control group was considered to be 100% to analyze the in vitro inhibitory activity on hepatic fibrosis by tested polypeptides.

Substance | Relative expression of α-SMA (α-SMA/β-actin, %)
His-Aib-Gln-Gly-Thr-Phe-Thr-Ser-Asp-Lys(PEG2-PEG2-γGlu- CO(CH2)14CO2H)-Ser-Lys-Tyr-Leu-Asp-Glu-Arg-Arg-Ala- Gln-Asp-Phe-Val-Gln-Trp-Leu-Leu-Asp-Gly-Gly-Gly-Pro-Ser-Ser-Gly-Ala-Pro-Pro-Pro-Ser-NH2 (H[Aib]QGTFTSDK([PEG2′-PEG2′-γGlu-C16 diacid])SKYLDERRAQDFVQWLLDGGGPSSGAPPPS-NH2) [Compound 3] | 45.28%
His-(D-Ser)-Gln-Gly-Thr-Phe-Thr-Ser-Asp-Tyr-Ser-Lys-Tyr-Leu-Asp-Glu-Lys-Ala-Ala-Lys(PEG2-PEG2-yGlu- CO(CH2)16CO2H)-Glu-Phe-Ile-Glu-Trp-Leu-Leu-Asn-Gly- Gly-Gly-Pro-Ser-Ser-Gly-Ala-Pro-Pro-Pro-Ser-NH2 (H[dS]QGTFTSDYSKYLDEKAAK([PEG2′-PEG2′-γGlu-C18 diacid])EFIEWLLNGGGPSSGAPPPS-NH2) [Compound 12] | 41.99%
His-(D-Ser)-Gln-Gly-Thr-Phe-Thr-Ser-Asp-Tyr-Ser-Lys-Tyr-Leu-Asp-Lys(PEG2-PEG2-yGlu-CO(CH2)16CO2H)-Arg-Arg- Ala-Gln-Asp-Phe-Val-Gln-Trp-Leu-Leu-Asn-Thr-Gly-Gly-Pro-Ser -Ser-Gly-Ala-Pro-Pro-Pro-Ser-NH2 (H[dS]QGTFTSDYSKYLDK([PEG2′-PEG2′-γGlu-C18 diacid])RRAQDFVQWLLNTGGPSSGAPPPS-NH2) [Compound 22] | 48.76%
His-(D-Ser)-Gln-Gly-Thr-Phe-Thr-Ser-Asp-Tyr-Ser-Lys-Tyr-Leu-Asp-Lys(PEG2-PEG2-yGlu-CO(CH2)16CO2H)-Arg-Arg- Ala-Gln-Asp-Phe-Val-Gln-Trp-Leu-Nle-Asn-Thr-Gly-Gly-Pro-Ser -Ser-Gly-Ala-Pro-Pro-Pro-Ser-NH2 (HXQGTFTSDYSKYLDKRRAQDFVQWLXNTGGPSSGAPPPS; D-Ser; Nle; PEG2-PEG2-γGlu-C18 diacid lipidation; C-terminal amide; (2)..(2) Xaa=D-Ser; (16)..(16) A side chain of Lys is linked to -PEG2-PEG2-AGlu-CO(CH2)16CO2H; (27)..(27) Xaa=Nle) [Compound 21] | 43.39%
His-(D-Ser)-Gln-Gly-Thr-Phe-Thr-Ser-Asp-Tyr-Ser-Lys-Tyr-Leu-Asp-Glu-Lys-Ala-Ala-Lys(PEG2-PEG2-γGlu- CO(CH2)14C3)-Glu-Phe-Ile-Glu-Trp-Leu-Leu-Arg-Gly-Gly- Gly-Pro-Ser-Ser-Gly-Ala-Pro-Pro-Pro-Ser-NH2 (H[dS]QGTFTSDYSKYLDEKAAK([PEG2′-PEG2′-γGlu-Palmitoyl])EFIEWLLRGGGPSSGAPPPS-NH2) [Compound 10] | 46.35%
His-(D-Ser)-Gln-Gly-Thr-Phe-Thr-Ser-Asp-Tyr-Ser-Lys-Tyr-Leu-Asp-Lys-Lys(PEG2-PEG2-γGlu-CO(CH2)16CO2H)-Ala- Ala-His-Asp-Phe-Val-Glu-Trp-Leu-Leu-Arg-Thr-Gly-Gly-Pro-Ser-Ser-Gly-Ala-Pro-Pro-Pro-Ser-NH2 [Compound 7] | 46.53%
His-(D-Ser)-Gln-Gly-Thr-Phe-Thr-Ser-Asp-Tyr-Ser-Lys-Tyr-Leu-Asp-Lys(PEG2-PEG2-γGlu-CO(CH2)16CH3)-Arg-Arg-Ala- Gln-Asp-Phe-Val-Gln-Trp-Leu-Met-Asn-Thr-Gly-Gly-Pro-Ser-Ser-Gly-Ala-Pro-Pro-Pro-Ser-NH2 (H[dS]QGTFTSDYSKYLDK([PEG2′-PEG2′-γGlu-Stearoyl])RRAQDFVQWLMNTGGPSSGAPPPS-NH2) [Compound 19] | 44.78%
His-(D-Ser)-Gln-Gly-Thr-Phe-Thr-Ser-Asp-Tyr-Ser-Lys-Tyr-Leu-Asp-Glu-Lys-Ala-Ala-Lys(PEG2-PEG2-γGlu- CO(CH2)16CH3)-Glu-Phe-Ile-Glu-Trp-Leu-Leu-Asn-Gly-Gly- Gly-Pro-Ser-Ser-Gly-Ala-Pro-Pro-Pro-Ser-NH2 (H[dS]QGTFTSDYSKYLDEKAAK([PEG2′-PEG2′-γGlu-Stearoyl])EFIEWLLNGGGPSSGAPPPS-NH2) [Compound 14] | 47.85%
His-(D-Ser)-Gln-Gly-Thr-Phe-Thr-Ser-Asp-Tyr-Ser-Lys-Tyr-Leu-Asp-Lys-Lys(PEG2-PEG2-γGlu-CO(CH2)14CH3)-Arg-Ala- Gln-Asp-Phe-Val-Gln-Trp-Leu-Met-Asn-Thr-Gly-Gly-Pro-Ser-Ser-Gly-Ala-Pro-Pro-Pro-Ser-NH2 (H[dS]QGTFTSDYSKYLDKK([PEG2′-PEG2′-γGlu-Palmitoyl])RAQDFVQWLMNTGGPSSGAPPPS-NH2) [Compound 16] | 40.86%
His-(D-Ser)-Gln-Gly-Thr-Phe-Thr-Ser-Asp-Tyr-Ser-Lys-Tyr-Leu-Asp-Lys(PEG2-PEG2-CO(CH2)16CO2H)-Arg-Arg-Ala- Gln-Asp-Phe-Val-Gln-Trp-Leu-Nle-Asn-Thr-Gly-Gly-Pro-Ser-Ser-Gly-Ala-Pro-Pro-Pro-Ser-NH2 (HXQGTFTSDYSKYLDKRRAQDFVQWLXNTGGPSSGAPPPS; D-Ser; Nle; PEG2-PEG2-C18 diacid lipidation; C-terminal amide; (2)..(2) Xaa=D-Ser; (16)..(16) A side chain of Lys is linked to -PEG2-PEG2-CO(CH2)16CO2H; (27)..(27) Xaa=Nle) [Compound 24] | 52.65%
His-(D-Ser)-Gln-Gly-Thr-Phe-Thr-Ser-Asp-Tyr-Ser-Lys-Tyr-Leu-Asp-Glu-Lys-Ala-Ala-Lys(PEG2-PEG2-γGlu- CO(CH2)16CO2H)-Glu-Phe-Ile-Glu-Trp-Leu-Leu-Arg-Thr-Gly- Gly-Pro-Ser-Ser-Gly-Ala-Pro-Pro-Pro-Ser-NH2 (H[dS]QGTFTSDYSKYLDEKAAK([PEG2′-PEG2′-γGlu-C18 diacid])EFIEWLLRTGGPSSGAPPPS-NH2) [Compound 8] | 39.92%
His-(D-Ser)-Gln-Gly-Thr-Phe-Thr-Ser-Asp-Tyr-Ser-Lys-Tyr-Leu-Asp-Lys(PEG2-PEG2-γGlu-CO(CH2)14CH3)-Arg-Arg-Ala- Gln-Asp-Phe-Val-Gln-Trp-Leu-Met-Asn-Thr-Gly-Gly-Pro-Ser-Ser-Gly-Ala-Pro-Pro-Pro-Ser-NH2 (H[dS]QGTFTSDYSKYLDK([PEG2′-PEG2′-γGlu-Palmitoyl])RRAQDFVQWLMNTGGPSSGAPPPS-NH2) [Compound 1] | 57.59%
His-Aib-Gln-Gly-Thr-Phe-Thr-Ser-Asp-Lys(PEG2-PEG2-yGlu- CO(CH2)14CH3)-Ser-Lys-Tyr-Leu-Asp-Glu-Arg-Arg-Ala-Gln- Asp-Phe-Val-Gln-Trp-Leu-Leu-Asp-Gly-Gly-Gly-Pro-Ser-Ser-Gly-Ala-Pro-Pro-Pro-Ser-NH2 (H[Aib]QGTFTSDK([PEG2′-PEG2′-γGlu-Palmitoyl])SKYLDERRAQDFVQWLLDGGGPSSGAPPPS-NH2) [Compound 6] | 42.34%
His-(D-Ser)-Gln-Gly-Thr-Phe-Thr-Ser-Asp-Tyr-Ser-Lys-Tyr-Leu-Asp-Lys(PEG2-PEG2-CO(CH2)16CO2H)-Arg-Arg-Ala- Gln-Asp-Phe-Val-Gln-Trp-Leu-Met-Asn-Thr-Gly-Gly-Pro-Ser-Ser-Gly-Ala-Pro-Pro-Pro-Ser-NH2 (H[dS]QGTFTSDYSKYLDK([PEG2′-PEG2′-C18 diacid])RRAQDFVQWLMNTGGPSSGAPPPS-NH2) [Compound 18] | 45.95%
His-(D-Ser)-Gln-Gly-Thr-Phe-Thr-Ser-Asp-Tyr-Ser-Lys-Tyr-Leu-Asp-Lys(PEG2-PEG2-γGlu-CO(CH2)16CO2H)-Arg-Arg- Ala-Gln-Asp-Phe-Val-Gln-Trp-Leu-Met-Asn-Thr-Gly-Gly-Pro-Ser-Ser-Gly-Ala-Pro-Pro-Pro-Ser-NH2 (H[dS]QGTFTSDYSKYLDK([PEG2′-PEG2′-γGlu-C18 diacid])RRAQDFVQWLMNTGGPSSGAPPPS-NH2) [Compound 17] | 38.78%
His-Aib-Gln-Gly-Thr-Phe-Thr-Ser-Asp-Lys(PEG2-PEG2-yGlu- CO(CH2)16CH3)-Ser-Lys-Tyr-Leu-Asp-Glu-Arg-Arg-Ala-Gln- Asp-Phe-Val-Gln-Trp-Leu-Leu-Asp-Gly-Gly-Pro-Ser-Ser-Gly-Ala-Pro-Pro-Pro-Ser-NH2 (H[Aib]QGTFTSDK([PEG2′-PEG2′-γGlu-Stearoyl])SKYLDERRAQDFVQWLLDGGPSSGAPPPS-NH2) [Compound 4] | 40.19%
His-(D-Ser)-Gln-Gly-Thr-Phe-Thr-Ser-Asp-Tyr-Ser-Lys-Tyr-Leu-Asp-Glu-Lys(PEG2-PEG2-γGlu-CO(CH2)16CO2H)-Ala- Ala-His-Asp-Phe-Val-Glu-Trp-Leu-Leu-Asn-Gly-Gly-Gly-Pro-Ser-Ser-Gly-Ala-Pro-Pro-Pro-Ser-NH2 (H[dS]QGTFTSDYSKYLDEK([PEG2′-PEG2′-γGlu-C18 diacid])AAHDFVEWLLNGGGPSSGAPPPS-NH2) [Compound 9] | 40.89%
His-(D-Ser)-Gln-Gly-Thr-Phe-Thr-Ser-Asp-Tyr-Ser-Lys-Tyr-Leu-Asp-Glu-Lys-Ala-Ala-Lys(PEG2-PEG2-γGlu-CO(CH2)14CO2H)-Glu-Phe-Ile-Glu-Trp-Leu-Leu-Asn-Gly- Gly-Gly-Pro-Ser-Ser-Gly-Ala-Pro-Pro-Pro-Ser-NH2 (H[dS]QGTFTSDYSKYLDEKAAK([PEG2′-PEG2′-γGlu-C16 diacid])EFIEWLLNGGGPSSGAPPPS-NH2) [Compound 13] | 40.46%
